Source: publication PMC6409468, “Isolation and identification of angiotensin I-converting enzyme inhibitory peptides derived from thermolysin-injected beef M. longissimus” (Asian-Australasian Journal of Animal Sciences, 2018)
Residues, ends and D or L forms follow the SMILES beside them. No end group written: not given here.

target: T1, ACE (from rabbit lung) (Oryctolagus cuniculus, UniProt P12822); assay: ACE inhibitory activity, spectrophotometric method (HHL substrate, hippuric acid at 228 nm); assay type: biochemical; settings: chemically synthesized peptides
T1 construct: ACE (peptidyldipeptide hydrolase from rabbit lung acetone extract); purchased Sigma; host or cells: rabbit lung (acetone extract)
T1 sequence (P12822 34-1310): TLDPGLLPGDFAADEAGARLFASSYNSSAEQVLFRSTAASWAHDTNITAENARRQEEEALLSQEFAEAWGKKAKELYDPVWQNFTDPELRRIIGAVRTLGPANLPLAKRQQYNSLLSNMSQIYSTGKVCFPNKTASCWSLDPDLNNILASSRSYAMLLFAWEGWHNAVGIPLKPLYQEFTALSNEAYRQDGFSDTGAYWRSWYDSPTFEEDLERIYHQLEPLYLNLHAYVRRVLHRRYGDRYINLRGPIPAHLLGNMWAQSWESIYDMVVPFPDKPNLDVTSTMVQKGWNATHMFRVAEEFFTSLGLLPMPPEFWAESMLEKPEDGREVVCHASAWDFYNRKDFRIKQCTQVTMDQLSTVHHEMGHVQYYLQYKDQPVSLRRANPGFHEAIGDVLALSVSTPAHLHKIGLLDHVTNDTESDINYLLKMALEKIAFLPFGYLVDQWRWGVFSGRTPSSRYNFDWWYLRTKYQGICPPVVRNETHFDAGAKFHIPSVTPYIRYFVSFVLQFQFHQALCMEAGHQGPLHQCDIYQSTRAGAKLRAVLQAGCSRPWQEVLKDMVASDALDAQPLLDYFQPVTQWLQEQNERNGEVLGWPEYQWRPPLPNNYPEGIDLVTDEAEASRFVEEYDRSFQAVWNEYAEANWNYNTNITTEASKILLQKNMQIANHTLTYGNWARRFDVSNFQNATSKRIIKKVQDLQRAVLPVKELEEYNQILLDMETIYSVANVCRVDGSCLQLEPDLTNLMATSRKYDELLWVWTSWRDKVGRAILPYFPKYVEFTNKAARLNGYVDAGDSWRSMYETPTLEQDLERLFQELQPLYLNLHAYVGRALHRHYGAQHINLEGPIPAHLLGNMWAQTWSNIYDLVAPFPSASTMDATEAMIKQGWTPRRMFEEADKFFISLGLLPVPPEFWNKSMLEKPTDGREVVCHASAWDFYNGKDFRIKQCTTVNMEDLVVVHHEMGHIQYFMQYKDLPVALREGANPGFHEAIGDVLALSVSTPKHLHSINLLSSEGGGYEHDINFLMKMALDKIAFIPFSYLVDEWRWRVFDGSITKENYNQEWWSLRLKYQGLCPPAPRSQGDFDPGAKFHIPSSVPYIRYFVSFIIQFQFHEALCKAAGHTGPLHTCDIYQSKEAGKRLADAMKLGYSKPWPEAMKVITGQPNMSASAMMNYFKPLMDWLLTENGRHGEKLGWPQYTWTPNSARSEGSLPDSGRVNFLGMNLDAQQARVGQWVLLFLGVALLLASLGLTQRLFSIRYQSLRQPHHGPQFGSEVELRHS
Experimental: ACE inhibitory activity determination was achieved using the spectrophotometric method described by Cushman and Cheung. For each assay, 100 μL of HHL (12.5 mM in 0.05 M sodium borate buffer) was incubated at 37°C for 5 min. After incubation, 50 μL of bovine peptide extracts and 150 μL of ACE (peptidyldipeptide hydrolase from rabbit lung acetone extract) were added and the mixture incubated for 1 h. The enzymatic reaction was stopped by adding 250 μL of 0.5 N HCl. The hippuric acid generated by the action of the angiotensin-converting enzyme on HHL was extracted from the acidified solution into 1 mL ethyl acetate by vortex mixing for 15 s. This was centrifuged at 3,290×g for 10 min at 4°C, and a 0.7 mL aliquot of each ethyl acetate layer was transferred to clean tubes and evaporated by heating at 95°C for 20 min in a water bath. The hippuric acid was redissolved in 3 mL of 1 M NaCl, and the amount formed was determined by absorbance at 228 nm. The IC50 value, defined as the concentration of a peptide that inhibits 50% of the ACE activity, was determined by measuring the ACE inhibitory activity and the peptide contents of each of the extracts after regression analysis. ACE inhibitory activity (%) was determined using the equation:
ACE inhibitory activity (%)=[1-(S-SC)/(B-BC)]×100
where S and B are optical density (OD) values for the sample and blank, respectively, and SC and BC are the OD values for the sample control and blank, respectively.

| Compound | IC50 [mM] |
| --- | --- |
| N[C@@H](Cc1ccc(O)cc1)C(=O)NCC(=O)O [Tyr-Gly] | 12.7 |
| CC(C)[C@H](N)C(=O)N[C@@H](CO)C(=O)N[C@@H](CO)C(=O)N[C@H](C(=O)O)C(C)C [Val-Ser-Ser-Val] (H-VSSV-OH) | 8.49 |
| NC(=O)C[C@H](NC(=O)[C@H](Cc1ccccc1)NC(=O)[C@@H](N)Cc1ccc(O)cc1)C(=O)N[C@@H](CCC(=O)O)C(=O)O [Tyr-Phe-Asn-Glu] (H-YFNE-OH) | 7.62 |
| N=C(N)NCCC[C@H](NC(=O)[C@@H](N)Cc1ccc(O)cc1)C(=O)N[C@@H](CCC(N)=O)C(=O)O [Tyr-Arg-Gln] (H-Tyr-Arg-Gln-OH) | 3.09 |
| N[C@@H](Cc1ccc(O)cc1)C(=O)N[C@@H](Cc1ccc(O)cc1)C(=O)O [Tyr-Tyr] (H-Tyr-Tyr-OH) | 8.6 |
| QPSGSQ [Gln-Pro-Ser-Gly-Ser-Gln] | 8.78 |

The next lines start with the values.

| IC50 [mM] | Compound |
| --- | --- |
| 5.92 | CSCC[C@H](N)C(=O)N[C@@H](C)C(=O)N[C@@H](CC(=O)O)C(=O)N[C@@H](C)C(=O)O [Met-Ala-Asp-Ala] (H-MADA-OH) |
| 2.69 | N[C@@H](Cc1ccccc1)C(=O)NCC(=O)N[C@@H](Cc1ccc(O)cc1)C(=O)O [Phe-Gly-Tyr] (H-Phe-Gly-Tyr-OH) |
| 0.89 | CC(C)C[C@H](N)C(=O)N[C@@H](CO)C(=O)N[C@@H](Cc1c[nH]c2ccccc12)C(=O)O [Leu-Ser-Trp] (H-Leu-Ser-Trp-OH) |
| 5.21 | LWHHT [Leu-Trp-His- His-Thr] |
